Laboratory results taken from US10206860B2, “Biguanide preservation of precipitated calcium carbonate” (Colgate-Palmolive Company, priority 2009, dated 2019).

Assay: Association of PHMB with PCC after drying (drum dryer)
Assay type: physicochemical
Conditions: only water is evaporated
Source text: Although PHMB is water soluble, with the drying process used for PCC (a drum dryer), only water is evaporated; the PHMB remains associated with the PCC.

poly[(hexamethylene)biguanide] [PHMB]
Association of PHMB with the PCC after the drying process: remains associated with the PCC after the drying process
